Test system: adenylate cyclase
Assay: assay for the capability of stimulating cyclic adenylate cyclase (cAMP formation)
Type: biochemical
Text: Compounds of general formula (I) were investigated in a suitable assay for the capability of stimulating cyclic adenylate cyclase.

SMILES	% cAMP (Test conc. 50 μM) [%]
CC(C=CC1=C(C)CCCC1(C)C)=C1SC(=S)N(CCC(=O)O)C1=O [Example 72, 3-5-[1-Methyl-3-(2,6,6-trimethyl-cyclohex-1-enyl)-allylidene]-4-oxo-2-thioxo-thiazolidin-3-yl-propionic acid]	15
O=C(O)CN1C(=O)C(=CC=CC=Cc2cc3ccccc3s2)SC1=S [Example 13, [5-(5-Benzo [b]thiophen-2-yl-penta-2,4-dienylidene)-4-oxo-2-thioxo-thiazolidin-3-yl]-acetic acid]	10
CC1=C(C=C2SC(=S)N(CCC(=O)O)C2=O)C(C)(C)CCC1 [Example 59, 3-(4-Oxo-2-thioxo-5-(2,6,6-trimetyl-cyclohex-1-enylmethylene)-thiazolidin-3-yl]-propionic acid]	15
CC(C=CC1=C(C)CCCC1(C)C)=CC=C1SC(=S)N(CC(=O)O)C1=O [Example 46, 5-(3-Methyl-5-(2,6,6trimethyl-cyclohex-1-enyl)-penta-2,4-dienyliden]-4-oxo-2-thioxo-thiazolidin-3-yl-acetic acid]	30
CC(C)(C)c1cc(C=C2SC(=S)N(CC(=O)O)C2=O)ccc1O [Example 23, [5-(3-tert-Butyl-4-hydroxy-benzylidene)-4-oxo-2-thioxo-thiazolidin-3-yl]-acetic acid]	8
O=C(O)CN1C(=O)C(=CC=Cc2cc3ccccc3s2)SC1=S [Example 16, [5-(3-Benzo [b]thiophen-2-yl-allylidene)-4-oxo-2-thioxo-thiazoldin-3-yl]-acetic acid]	8
CC(C)(C)c1cc(C=C2SC(=S)N(C(Cc3ccccc3)C(=O)O)C2=O)cc(C(C)(C)C)c1O (stereo not drawn) [Example 3, 2-[5-(3,5-Di-tert-butyl-4-hydroxy-benzylidene)-4-oxo-2-thioxo-thiazolidin-3-yl]-3-phenyl-propionic acid]	8
CC(C=CC1=C(C)CCCC1(C)C)=C1SC(=S)N(CC(=O)O)C1=O [Example 22, 5-[1-Methyl-3-[2,6,6-trimethyl-cyclohex-1-enyl)-allylidene]-4-oxo-2-thioxo-thiazolidin-3-yl-acetic acid]	10
CC(C)(C)c1cc(C=C2SC(=S)N(CCC(=O)O)C2=O)cc(C(C)(C)C)c1O [Example 60, 3-[5-(3,5-Di-tert-butyl-4-hydroxy-benzylidene)-4-oxo-2-thioxo-thiazolidin-3-yl]-propionic acid]	20
CC(C)(C)c1cc(C=C2SC(=S)N(CC(=O)O)C2=O)cc(C(C)(C)C)c1O [Example 25, [5-(3,5-Di-tert-butyl-4-hydroxy-benzylidene)-4-oxo-2-thioxo-thiazolidin-3-yl]-acetic acid]	40

Test system: not given
Assay: not given

SMILES	melting point
CCN(CC)C(=O)CN1C(=O)C(=Cc2cc(C(C)(C)C)c(O)c(C(C)(C)C)c2)SC1=S	223 to 225 °C
CC(C=CC1=C(C)CCCC1(C)C)=CC=CC(C)=CC=C1SC(=S)N(CC(=O)O)C1=O	144 °C (dec.)
O=C(O)CCN1C(=O)C(=Cc2cccc3ccccc23)SC1=S	159 to 161 °C
O=C(O)CN1C(=O)C(=Cc2ccc3c(c2)CCO3)SC1=S	246 to 247 °C
O=C(O)CN1C(=O)C(=CC=CC=Cc2cc3ccccc3s2)SC1=S [Example 13, [5-(5-Benzo [b]thiophen-2-yl-penta-2,4-dienylidene)-4-oxo-2-thioxo-thiazolidin-3-yl]-acetic acid]	> 240 °C
Cc1[nH]c2ccccc2c1C=C1SC(=S)N(CC(=O)O)C1=O	268 to 270 °C
CC(C=CC1=C(C)CCCC1(C)C)=CC=C1SC(=S)N(CC(=O)O)C1=O [Example 46, 5-(3-Methyl-5-(2,6,6trimethyl-cyclohex-1-enyl)-penta-2,4-dienyliden]-4-oxo-2-thioxo-thiazolidin-3-yl-acetic acid]	153 to 155 °C
CC1C(C=C2SC(=S)N(CC(=O)O)C2=O)=CC=C(O)C1(C)O (stereo not drawn)	> 240 °C
COc1ccc(C=C2SC(=S)N(CC(=O)O)C2=O)cc1C	235 to 236 °C
CCC1=C(C=CC(C)=CC=CC=C2SC(=S)N(CC(=O)O)C2=O)C(CC)(CC)CCC1	192 to 195 °C
CC(=O)Oc1ccc(C=C2SC(=S)N(CC(=O)O)C2=O)cc1OC(C)=O	193 to 253 °C
O=C(O)CCCCCN1C(=O)C(=Cc2cc(O)c(O)c(O)c2)SC1=S	212 to 214 °C
O=C(O)CN1C(=O)C(=Cc2cc3ccccc3s2)SC1=S	292 to 294 °C
CCOc1cc2cc(C=CC=C3SC(=S)N(CC(=O)OC)C3=O)sc2cc1OCC	211 to 215 °C
CCCCCc1ccc(C=C2SC(=S)N(CC(=O)O)C2=O)cc1	160 to 162 °C
CC(C)(C)c1cc(C=C2SC(=S)N(CC(=O)O)C2=O)ccc1O [Example 23, [5-(3-tert-Butyl-4-hydroxy-benzylidene)-4-oxo-2-thioxo-thiazolidin-3-yl]-acetic acid]	> 240 °C
COC(=O)CN1C(=O)C(=Cc2cc(C(C)(C)C)c(O)c(C(C)(C)C)c2)SC1=S	165 to 170 °C
CC(C)(C)c1cc(C=C2SC(=S)N(C(Cc3ccccc3)C(=O)O)C2=O)cc(C(C)(C)C)c1O (stereo not drawn) [Example 3, 2-[5-(3,5-Di-tert-butyl-4-hydroxy-benzylidene)-4-oxo-2-thioxo-thiazolidin-3-yl]-3-phenyl-propionic acid]	160 °C (dec.)
CC(C=CC1=C(C)CCCC1(C)C)=C1SC(=S)N(CC(=O)O)C1=O [Example 22, 5-[1-Methyl-3-[2,6,6-trimethyl-cyclohex-1-enyl)-allylidene]-4-oxo-2-thioxo-thiazolidin-3-yl-acetic acid]	100 °C (dec.)
O=C(O)CCN1C(=O)C(=CC=Cc2cc3ccccc3s2)SC1=S	246 to 248 °C
CC(C)(C)c1cc(C=C2SC(=S)N(CCC(=O)O)C2=O)cc(C(C)(C)C)c1O [Example 60, 3-[5-(3,5-Di-tert-butyl-4-hydroxy-benzylidene)-4-oxo-2-thioxo-thiazolidin-3-yl]-propionic acid]	218 to 219 °C
CC(C)(C)c1cc(C=C2SC(=S)N(CC(=O)O)C2=O)cc(C(C)(C)C)c1O [Example 25, [5-(3,5-Di-tert-butyl-4-hydroxy-benzylidene)-4-oxo-2-thioxo-thiazolidin-3-yl]-acetic acid]	120 to 121 °C
CN1C(=O)C(=Cc2cc(C(C)(C)C)c(O)c(C(C)(C)C)c2)SC1=S	> 240 °C

Continued, values first:

melting point	SMILES
206 to 207 °C	O=C(O)CN1C(=O)C(=Cc2ccc(OCc3ccc4c(c3)OCO4)cc2)SC1=S
130 to 133 °C	O=C(O)CN1C(=O)C(=Cc2cc(OCc3ccccc3)ccc2O)SC1=S
114 to 115 °C	O=C(O)CN1C(=O)C(=CC2CCN(C(=O)OCc3ccccc3)CC2)SC1=S
178 to 180 °C	O=C(O)CN1C(=O)C(=CC2=CC=C(OCc3ccccc3)C(O)(O)C2)SC1=S
220 to 221 °C	O=C(O)CCC(C(=O)O)N1C(=O)C(=Cc2cc3ccccc3s2)SC1=S (stereo not drawn)
130 °C (dec.)	CC(C)(C)c1cc(C=C2SC(=S)N(C(CCC(=O)O)C(=O)O)C2=O)cc(C(C)(C)C)c1O (stereo not drawn)
263 °C (dec.)	O=C(O)CN1C(=O)C(=Cc2ccc(O)c(O)c2O)SC1=S
277 to 279 °C	Cc1cc(C=C2SC(=S)N(CC(=O)O)C2=O)cc(C)c1O
186 to 188 °C	CCCCN(CCCC)c1ccc(C=C2SC(=S)N(CC(=O)O)C2=O)cc1
230 to 232 °C	O=C(O)CN1C(=O)C(=Cc2ccc(O)cc2)SC1=S
> 240 °C	CC(=O)Nc1ccc2sc(C=C3SC(=S)N(CC(=O)O)C3=O)cc2c1
125 to 128 °C	CC(C(=O)O)N1C(=O)C(=Cc2ccc(OCc3ccccc3)cc2)SC1=S (stereo not drawn)
194 °C (dec.)	COc1cc(O)c(C=C2SC(=S)N(CC(=O)O)C2=O)c(OC)c1
238 to 240 °C	COc1cc(C=C2SC(=S)N(CC(=O)O)C2=O)cc(OC)c1O
111 to 120 °C (dec.)	O=C(O)COc1ccc(CC=C2SC(=S)N(CC(=O)O)C2=O)cc1
240 °C (dec.)	O=C(O)CC(C(=O)O)N1C(=O)C(=Cc2cc3ccccc3s2)SC1=S (stereo not drawn)
185 to 190 °C	CCOc1c(C)cc(C=C2SC(=S)N(CC(=O)O)C2=O)c(C)c1OCC
> 260 °C	O=C(O)CN1C(=O)C(=Cc2ccc(O)c(C(=O)O)c2)SC1=S

melting point	SMILES
140 °C (dec.)	CC(C)(C)c1cc(C=C2SC(=S)N(C(Cc3c[nH]c4ccccc34)C(=O)O)C2=O)cc(C(C)(C)C)c1O (stereo not drawn)
240 °C	COc1cc(C)c(C=C2SC(=S)N(CC(=O)O)C2=O)cc1C
188 to 191 °C	O=C(O)CCN1C(=O)C(=Cc2ccc(OCc3ccccc3)cc2)SC1=S
191 to 193 °C	COc1cccc(COc2ccc(C=C3SC(=S)N(CC(=O)O)C3=O)cc2)c1
205 to 206 °C	O=C(O)CN1C(=O)C(=Cc2ccc(OCc3ccccc3)cc2)SC1=S
> 260 °C	COc1cc(C)c2c(c1C=C1SC(=S)N(CC(=O)O)C1=O)Oc1c(c(C)c(O)c3c1C(O)OC3=O)OC2=O (stereo not drawn)
196 to 198 °C	O=C(O)CN1C(=O)C(=Cc2cc(OCc3ccccc3)ccc2OCc2ccccc2)SC1=S
187 to 188 °C	O=C(O)CN1C(=O)C(=Cc2ccc(OCc3ccccc3)c(OCc3ccccc3)c2)SC1=S
172 to 173 °C	COc1ccc(COc2ccc(C=C3SC(=S)N(CC(=O)O)C3=O)cc2)cc1
240 °C (dec.)	CC(C)(C)c1cc(C=C2SC(=S)N(C(CC(=O)O)C(=O)O)C2=O)cc(C(C)(C)C)c1O (stereo not drawn)
174 to 176 °C	O=C(O)CCN1C(=O)C(=Cc2ccc3c(c2)OCO3)SC1=S
210 °C (dec.)	CCOc1c(C)cc(C=CC=C2SC(=S)N(CC(=O)O)C2=O)c(C)c1OCC
108 to 111 °C	O=C(O)CN1C(=O)C(=CCCc2ccccc2)SC1=S
> 240 °C	CC(C)(C)c1cc(C=CC=C2SC(=S)N(CC(=O)O)C2=O)cc(C(C)(C)C)c1O
184 to 188 °C	CC(=C1SC(=S)N(CC(=O)O)C1=O)c1cc(O)cc(O)c1
193 to 196 °C	COc1cccc(C=C2SC(=S)N(CC(=O)O)C2=O)c1
200 °C (dec.)	CC(=O)Oc1cc(C=C2SC(=S)N(CC(=O)O)C2=O)cc(OC(C)=O)c1OC(C)=O
148 to 150 °C	CCCCCCOc1ccccc1C=C1SC(=S)N(CC(=O)O)C1=O
